Measurements taken from patent US20260125370A1, “SULFOXIMINE COMPOUNDS AS HISTONE DEACETYLASE 6 INHIBITOR, AND PHARMACEUTICAL COMPOSITION COMPRISING THE SAME” (CHONG KUN DANG PHARMACEUTICAL CORP., priority 2022, published 2026).

Legend:
human recombinant HDAC1 = molecular target: T1, human recombinant HDAC1 (Homo sapiens, UniProt Q13547); test: HDAC1 enzyme activity inhibition (HDAC1 Fluorimetric Drug Discovery Assay Kit, in vitro); assay type: biochemical; conditions: samples at 100, 1000 and 10000 nM
T1 construct: purchased Enzolifesciences BML-SE456
T1 sequence (Q13547 whole entry): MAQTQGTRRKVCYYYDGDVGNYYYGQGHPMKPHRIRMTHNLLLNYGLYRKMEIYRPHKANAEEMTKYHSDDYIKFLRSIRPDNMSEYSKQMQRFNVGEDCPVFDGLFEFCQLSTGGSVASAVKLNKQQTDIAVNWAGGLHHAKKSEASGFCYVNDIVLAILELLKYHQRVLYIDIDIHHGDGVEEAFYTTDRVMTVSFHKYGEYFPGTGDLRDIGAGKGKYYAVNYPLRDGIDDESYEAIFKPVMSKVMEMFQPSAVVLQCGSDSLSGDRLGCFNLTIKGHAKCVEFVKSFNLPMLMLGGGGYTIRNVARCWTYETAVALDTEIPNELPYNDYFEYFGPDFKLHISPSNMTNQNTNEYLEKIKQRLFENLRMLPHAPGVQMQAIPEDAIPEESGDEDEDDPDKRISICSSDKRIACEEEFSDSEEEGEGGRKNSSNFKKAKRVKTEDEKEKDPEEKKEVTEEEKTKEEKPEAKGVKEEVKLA
Protocol: (§1) A HDAC enzyme inhibitory capacity of a test material was measured by using HDAC1 Fluorimetric Drug Discovery Assay Kit (Enzolifesciences: BML-AK511) and HDAC6 human recombinant (Calbiochem: 382180). For a HDAC1 assay, samples were treated at a concentration of 100, 1000 and 10000 nM. For a HDAC6 assay, samples were treated at a concentration of 0.1, 1, 10, 100 and 1000 nM.
(§2) For the test on the HDAC1 enzyme activity, human recombinant HDAC1 (BML-SE456) was used as a zymogen and Fluor de Lys®-SIRT1 (BNL-KI177) was used as a substrate. A 5-fold dilution of the compound was divided into a 96-well plate, after which 0.3 μg of the enzyme and […] of the substrate were inserted into each well and subjected to reaction at 37° C. for 60 minutes, such that Fluor de Lys® Developer II (BML-K1176) was inserted thereinto and subjected to reaction for 30 minutes and finished. After that, a fluorescence value (Ex 360, Em 460) was measured with a multi-plate reader (FlexStation 3, Molecular Device). An experiment on HDAC6 enzyme was conducted in accordance with the same protocol as in the HDAC1 enzyme activity test method by using human recombinant HDAC6 (382180) of Calbiochem Inc. For final result values, each IC50 value was calculated with GraphPad Prism 4.0 program.

human recombinant HDAC6 = molecular target: T2, human recombinant HDAC6 (Homo sapiens, UniProt Q9UBN7); test: HDAC6 enzyme activity inhibition (fluorimetric, in vitro); assay type: biochemical; conditions: samples at 0.1, 1, 10, 100 and 1000 nM
T2 construct: purchased Calbiochem 382180
T2 sequence (Q9UBN7 1-1215): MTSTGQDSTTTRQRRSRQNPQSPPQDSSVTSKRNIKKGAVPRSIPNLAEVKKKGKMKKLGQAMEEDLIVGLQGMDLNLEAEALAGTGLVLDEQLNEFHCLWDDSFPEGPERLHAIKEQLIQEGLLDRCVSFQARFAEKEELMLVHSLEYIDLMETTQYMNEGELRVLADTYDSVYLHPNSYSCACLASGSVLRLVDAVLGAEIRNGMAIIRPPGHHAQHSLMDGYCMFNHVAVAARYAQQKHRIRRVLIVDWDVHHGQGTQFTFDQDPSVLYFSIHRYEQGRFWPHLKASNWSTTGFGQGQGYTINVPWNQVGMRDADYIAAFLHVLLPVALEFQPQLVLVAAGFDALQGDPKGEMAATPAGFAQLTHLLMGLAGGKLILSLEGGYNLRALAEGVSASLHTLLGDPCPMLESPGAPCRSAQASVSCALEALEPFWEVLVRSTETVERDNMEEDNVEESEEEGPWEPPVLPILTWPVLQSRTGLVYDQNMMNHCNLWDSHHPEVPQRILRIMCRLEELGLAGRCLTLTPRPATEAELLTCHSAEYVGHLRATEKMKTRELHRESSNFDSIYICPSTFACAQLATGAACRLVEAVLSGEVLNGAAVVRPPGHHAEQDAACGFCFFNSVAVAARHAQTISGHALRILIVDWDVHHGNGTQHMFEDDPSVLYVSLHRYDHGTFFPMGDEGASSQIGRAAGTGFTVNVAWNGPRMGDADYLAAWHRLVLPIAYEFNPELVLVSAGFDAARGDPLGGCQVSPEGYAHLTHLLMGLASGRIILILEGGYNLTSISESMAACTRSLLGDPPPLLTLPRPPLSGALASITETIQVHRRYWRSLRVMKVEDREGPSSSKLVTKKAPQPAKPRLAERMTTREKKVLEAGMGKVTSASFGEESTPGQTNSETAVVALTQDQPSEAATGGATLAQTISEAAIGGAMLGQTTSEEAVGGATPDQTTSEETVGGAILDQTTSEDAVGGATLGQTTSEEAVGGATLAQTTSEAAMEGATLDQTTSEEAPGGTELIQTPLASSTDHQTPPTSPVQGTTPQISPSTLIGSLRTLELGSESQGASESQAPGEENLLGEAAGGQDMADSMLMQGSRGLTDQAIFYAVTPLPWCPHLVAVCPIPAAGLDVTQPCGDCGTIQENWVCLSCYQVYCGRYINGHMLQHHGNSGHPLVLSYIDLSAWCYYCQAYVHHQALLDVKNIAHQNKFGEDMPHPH
Protocol: as §1, §2

Compound: N=S1(=O)CCN(C(=O)N(Cc2ccc(-c3nnc(C(F)F)o3)cc2F)c2ccc(Br)cc2)CC1 [Compound 20, N-(4-bromophenyl)-N-(4-(5-(difluoromethyl)-1,3,4-oxadiazol-2-yl)-2-fluorobenzyl)-1-iminothiomorpholin-4-carboxamide 1-oxide]
- IC50 (human recombinant HDAC1): > 10000 nM
- IC50 (human recombinant HDAC6): 76.7 nM

Compound: N=S1(=O)CCN(C(=O)N(Cc2ccc(-c3nnc(C(F)F)o3)cc2F)c2ccc(SC(F)(F)F)cc2)CC1 [Compound 21, N-(4-(5-(difluoromethyl)-1,3,4-oxadiazol-2-y1)-2-fluorobenzyl)-1-imino-N-(4-((trifluoromethyl)thio)phenyl)thiomorpholin-4-carboxamide 1-oxide]
- IC50 (human recombinant HDAC1): > 10000 nM
- IC50 (human recombinant HDAC6): 294 nM

Compound: N=S1(=O)CCN(C(=O)N(Cc2ccc(-c3nnc(C(F)F)o3)cc2F)c2ccc3c(c2)CCO3)CC1 [Compound 22, N-(4-(5-(difluoromethyl)-1,3,4-oxadiazol-2-y1)-2-fluorobenzyl)-N-(2,3-dihydrobenzofuran-5-yl)-1-iminothiomorpholin-4-carboxamide 1-oxide]
- IC50 (human recombinant HDAC1): > 10000 nM
- IC50 (human recombinant HDAC6): 75.2 nM

Compound: N=S1(=O)CCN(C(=O)N(Cc2ccc(-c3nnc(C(F)F)o3)cc2F)c2ccc(-c3ccco3)cc2)CC1 [Compound 23, N-(4-(5-(difluoromethyl)-1,3,4-oxadiazol-2-yl)-2-fluorobenzyl)-N-(4-(furan-2-yl)phenyl)-1-iminothiomorpholin-4-carboxamide 1-oxide]
- IC50 (human recombinant HDAC1): > 10000 nM
- IC50 (human recombinant HDAC6): 64.4 nM

Compound: N=S1(=O)CCN(C(=O)N(Cc2ccccc2)Cc2ccc(-c3nnc(C(F)F)o3)cc2F)CC1 [Compound 24, N-benzyl-N-(4-(5-(difluoromethyl)-1,3,4-oxadiazol-2-y1)-2-fluorobenzyl)-1-iminothiomorpholin-4-carboxamide 1-oxide]
- IC50 (human recombinant HDAC1): > 10000 nM
- IC50 (human recombinant HDAC6): 1010 nM

Compound: COc1ccccc1N(Cc1ccc(-c2nnc(C(F)F)o2)cc1F)C(=O)N1CCS(=N)(=O)CC1 [Compound 25, N-(4-(5-(difluoromethyl)-1,3,4-oxadiazol-2-y1)-2-fluorobenzyl)-1-imino-N-(2-methoxyphenyl)thiomorpholin-4-carboxamide 1-oxide]
- IC50 (human recombinant HDAC1): > 10000 nM
- IC50 (human recombinant HDAC6): 141 nM

Compound: N=S1(=O)CCN(C(=O)N(Cc2ccc(-c3nnc(C(F)F)o3)cc2F)c2ccsc2)CC1 [Compound 26, N-(4-(5-(difluoromethyl)-1,3,4-oxadiazol-2-yl)-2-fluorobenzyl)-1-imino-N-(thiophen-3-yl)thiomorpholin-4-carboxamide 1-oxide]
- IC50 (human recombinant HDAC1): > 10000 nM
- IC50 (human recombinant HDAC6): 98.6 nM

Compound: COc1ccc(N(Cc2ccc(-c3nnc(C(F)F)o3)cc2F)C(=O)N2CCS(=N)(=O)CC2)cc1 [Compound 27, N-(4-(5-(difluoromethyl)-1,3,4-oxadiazol-2-y1)-2-fluorobenzyl)-1-imino-N-(4-methoxyphenyl)thiomorpholin-4-carboxamide 1-oxide]
- IC50 (human recombinant HDAC1): > 10000 nM
- IC50 (human recombinant HDAC6): 86.6 nM

Compound: N=S1(=O)CCN(C(=O)N(Cc2ccc(-c3nnc(C(F)F)o3)cc2F)c2ccc3c(c2)CCC3)CC1 [Compound 28, N-(4-(5-(difluoromethyl)-1,3,4-oxadiazol-2-y1)-2-fluorobenzyl)-N-(2,3-dihydro-1H-inden-5-yl)-1-iminothiomorpholin-4-carboxamide 1-oxide]
- IC50 (human recombinant HDAC1): > 10000 nM
- IC50 (human recombinant HDAC6): 92.2 nM

Compound: CCOP(=O)(N=S1(=O)CCN(C(=O)N(Cc2ccc(-c3nnc(C(F)F)o3)cc2F)c2ccc(F)c(F)c2)CC1)OCC [Compound 29, Diethyl (4-((4-(5-(difluoromethyl)-1,3,4-oxadiazol-2-yl)-2-fluorobenzyl)(3,4-difluorophenyl)carbamoyl)-1-oxidothiomorpholin-1-ylidene)phosphoramidate]
- IC50 (human recombinant HDAC1): > 10000 nM
- IC50 (human recombinant HDAC6): 78.8 nM

Compound: CC(=O)N=S1(=O)CCN(C(=O)N(Cc2ccc(-c3nnc(C(F)F)o3)cn2)c2ccc(F)c(F)c2)CC1 [Compound 30, 1-(acetylimino)-N-((5-(5-(difluoromethyl)-1,3,4-oxadiazol-2-yl)pyridin-2-yl)methyl)-N-(3,4-difluorophenyl)thiomorpholin-4-carboxamide 1-oxide]
- IC50 (human recombinant HDAC1): > 10000 nM
- IC50 (human recombinant HDAC6): 54.6 nM

Compound: N=S1(=O)CCN(C(=O)N(Cc2ccc(-c3nnc(C(F)F)o3)cc2F)c2cccc(C(F)(F)F)c2)CC1 [Compound 31, N-(4-(5-(difluoromethyl)-1,3,4-oxadiazol-2-y1)-2-fluorobenzyl)-1-imino-N-(3-(trifluoromethyl)phenyl)thiomorpholin-4-carboxamide 1-oxide]
- IC50 (human recombinant HDAC1): > 10000 nM
- IC50 (human recombinant HDAC6): 91.4 nM

Compound: Cc1cccc(N(Cc2ccc(-c3nnc(C(F)F)o3)cc2F)C(=O)N2CCS(=N)(=O)CC2)c1 [Compound 32, N-(4-(5-(difluoromethyl)-1,3,4-oxadiazol-2-y1)-2-fluorobenzyl)-1-imino-N-(m-tolyl)thiomorpholin-4-carboxamide 1-oxide]
- IC50 (human recombinant HDAC1): > 10000 nM
- IC50 (human recombinant HDAC6): 80.6 nM

Compound: N=S1(=O)CCN(C(=O)N(Cc2ccc(-c3nnc(C(F)F)o3)cc2F)c2cc(F)ccc2F)CC1 [Compound 33, N-(4-(5-(difluoromethyl)-1,3,4-oxadiazol-2-y1)-2-fluorobenzyl)-N-(2,5-difluorophenyl)-1-iminothiomorpholin-4-carboxamide 1-oxide]
- IC50 (human recombinant HDAC1): > 10000 nM
- IC50 (human recombinant HDAC6): 51.3 nM

Compound: N=S1(=O)CCN(C(=O)N(Cc2ccc(-c3nnc(C(F)F)o3)cc2F)c2cccc(-n3cccc3)c2)CC1 [Compound 34, N-(3-(1H-pyrrol-1-yl)phenyl)-N-(4-(5-(difluoromethyl)-1,3,4-oxadiazol-2-y1)-2-fluorobenzyl)-1-iminothiomorpholin-4-carboxamide 1-oxide]
- IC50 (human recombinant HDAC1): > 10000 nM
- IC50 (human recombinant HDAC6): 91.5 nM

Compound: N=S1(=O)CCN(S(=O)(=O)N(Cc2ccc(-c3nnc(C(F)F)o3)cc2F)c2cccc(F)c2)CC1 [Compound 35, N-(4-(5-(difluoromethyl)-1,3,4-oxadiazol-2-yl)-2-fluorobenzyl)-N-(3-fluorophenyl)-1-iminothiomorpholin-4-sulfonamide 1-oxide]
- IC50 (human recombinant HDAC1): > 10000 nM
- IC50 (human recombinant HDAC6): 59.7 nM

Compound: N=S1(=O)CCN(S(=O)(=O)N(Cc2ccc(-c3nnc(C(F)F)o3)cn2)c2cccc(F)c2)CC1 [Compound 36, N-((5-(5-(difluoromethyl)-1,3,4-oxadiazol-2-yl)pyridin-2-yl)methyl)-N-(3-fluorophenyl)-1-iminothiomorpholin-4-sulfonamide 1-oxide]
- IC50 (human recombinant HDAC1): > 10000 nM
- IC50 (human recombinant HDAC6): 30.8 nM

Compound: CS(=O)(=O)N=S1(=O)CCN(C(=O)N(Cc2ccc(-c3nnc(C(F)F)o3)cc2F)c2ccccc2)CC1 [Compound 37, N-(4-(5-(difluoromethyl)-1,3,4-oxadiazol-2-yl)-2-fluorobenzyl)-1-((methylsulfonyl)imino)-N-phenylthiomorpholin-4-carboxamide 1-oxide]
- IC50 (human recombinant HDAC1): > 10000 nM
- IC50 (human recombinant HDAC6): 61.3 nM

Compound: COC(=O)N=S1(=O)CCN(C(=O)N(Cc2ccc(-c3nnc(C(F)F)o3)cc2F)c2ccccc2)CC1 [Compound 38, Methyl (4-((4-(5-(difluoromethyl)-1,3,4-oxadiazol-2-yl)-2-fluorobenzyl)(phenyl)carbamoyl)-1-oxidothiomorpholin-1-ylidene)carbamate]
- IC50 (human recombinant HDAC1): > 10000 nM
- IC50 (human recombinant HDAC6): 67.2 nM
